Test [1] addresses T1, EGFR tyrosine kinase enzyme (Homo sapiens, UniProt P00533).
T1 construct: Recombinant intracellular fragments of EGFR, erbB2 and erbB4; made in house; host or cells: baculovirus/Sf21 insect cells
The experiment in a line: Protein tyrosine kinase phosphorylation assay, Test (a). It is filed as biochemical. The settings on record: ATP at Km concentration; read-out: IC50 (nM) Test (a) (inhibition of tyrosine kinase protein phosphorylation). How it is done: This test measures the ability of a test compound to inhibit the phosphorylation of a tyrosine containing polypeptide substrate by EGFR tyrosine kinase enzyme.
Recombinant intracellular fragments of EGFR, erbB2 and erbB4 (accession numbers X00588, X03363 and L07868 respectively) were cloned and expressed in the baculovirus/Sf21 system. Lysates were prepared from these cells by treatment with ice-cold lysis buffer (20 mM N-2-hydroxyethylpiperizine-N′-2-ethanesulfonic acid (HEPES) pH7.5, 150 mM NaCl, 10% glycerol, 1% Triton X-100, 1.5 mM MgCl2, 1 mM ethylene glycol-bis(β-aminoethyl ether) N′,N′,N′,N′-tetraacetic acid (EGTA), plus protease inhibitors and then cleared by centrifugation.
Constitutive kinase activity of the recombinant protein was determined by its ability to phosphorylate a synthetic peptide (made up of a random co-polymer of Glutamic Acid, Alanine and Tyrosine in the ratio of 6:3:1). Specifically, Maxisorb™ 96-well immunoplates were coated with synthetic peptide (0.2 μg of peptide in a 100 μl phosphate buffered saline (PBS) solution and incubated at 4° C. overnight). Plates were washed in PBS-T (phosphate buffered saline with 0.5% Tween 20) then in 50 mM HEPES pH 7.4 at room temperature to remove any excess unbound synthetic peptide. EGFR, ErbB2 or ErbB4 tyrosine kinase activity was assessed by incubation in peptide coated plates for 20 minutes at 22° C. in 100 mM HEPES pH 7.4, adenosine trisphosphate (ATP) at Km concentration for the respective enzyme, 10 mM MnCl2, 0.1 mM Na3VO4, 0.2 mM DL-dithiothreitol (DTT), 0.1% Triton X-100 with test compound in DMSO (final concentration of 2.5%). Reactions were terminated by the removal of the liquid components of the assay followed by washing of the plates with PBS-T.
The immobilised phospho-peptide product of the reaction was detected by immunological methods. Firstly, plates were incubated for 90 minutes at room temperature with anti-phosphotyrosine primary antibodies that were raised in the mouse (4G10 from Upstate Biotechnology). Following extensive washing, plates were treated with Horseradish Peroxidase ([…]) conjugated sheep anti-mouse secondary antibody (NXA931 from Amersham) for 60 minutes at room temperature. After further washing, HRP activity in each well of the plate was measured colorimetrically using 22′-Azino-di-[3-ethylbenzthiazoline sulfonate (6)] diammonium salt crystals (ABTS™ from Roche) as a substrate.
Quantification of colour development and thus enzyme activity was achieved by the measurement of absorbance at 405 nm on a Molecular Devices ThermoMax microplate reader. Kinase inhibition for a given compound was expressed as an IC50 value. This was determined by calculation of the concentration of compound that was required to give 50% inhibition of phosphorylation in this assay. The range of phosphorylation was calculated from the positive (vehicle plus ATP) and negative (vehicle minus ATP) control values.

The next test has as its system KB cells. In words: EGFR driven KB cell proliferation assay, Test (b). It is filed as cell-based. The conditions noted are these: Homo sapiens, 96 h, EGF 1 ng/ml, incubation for 4 days, MTT. As to the method:
This assay measures the ability of a test compound to inhibit the proliferation of KB cells (human naso-pharangeal carcinoma obtained from the American Type Culture Collection (ATCC).
KB cells (human naso-pharangeal carcinoma obtained from the ATCC were cultured in Dulbecco's modified Eagle's medium (DMEM) containing 10% foetal calf serum, 2 mM glutamine and non-essential amino acids at 37° C. in a 7.5% CO2 air incubator. Cells were harvested from the stock flasks using Trypsin/ethylaminediaminetetraacetic acid (EDTA). Cell density was measured using a haemocytometer and viability was calculated using trypan blue solution before being seeded at a density of 1.25×10^3 cells per well of a 96 well plate in DMEM containing 2.5% charcoal stripped serum, 1 mM glutamine and non-essential amino acids at 37° C. in 7.5% CO2 and allowed to settle for 4 hours.
Following adhesion to the plate, the cells are treated with or without EGF (final concentration of 1 ng/ml) and with or without compound at a range of concentrations in dimethylsulfoxide (DMSO) (0.1% final) before incubation for 4 days. Following the incubation period, cell numbers were determined by addition of 50 μl of 3-(4,5-Dimethylthiazol-2-yl)-2,5-diphenyltetrazolium bromide (MTT) (stock 5 mg/ml) for 2 hours. MTT solution was then tipped off, the plate gently tapped dry and the cells dissolved upon the addition of 100 μl of DMSO.
Absorbance of the solubilised cells was read at 540 nm using a Molecular Devices ThermoMax microplate reader. Inhibition of proliferation was expressed as an IC50 value. This was determined by calculation of the concentration of compound that was required to give 50% inhibition of proliferation. The range of proliferation was calculated from the positive (vehicle plus EGF) and negative (vehicle minus EGF) control values.

The values that follow come from patent US7838530B2, “Quinazoline derivatives as antiproliferative agents” (AstraZeneca AB, priority 2003, dated 2010).

Molecules are shown by their SMILES.

In general, IC50 refers to the concentration needed to halve the response being measured.

T1 sequence (P00533 669-1210 limits assumed): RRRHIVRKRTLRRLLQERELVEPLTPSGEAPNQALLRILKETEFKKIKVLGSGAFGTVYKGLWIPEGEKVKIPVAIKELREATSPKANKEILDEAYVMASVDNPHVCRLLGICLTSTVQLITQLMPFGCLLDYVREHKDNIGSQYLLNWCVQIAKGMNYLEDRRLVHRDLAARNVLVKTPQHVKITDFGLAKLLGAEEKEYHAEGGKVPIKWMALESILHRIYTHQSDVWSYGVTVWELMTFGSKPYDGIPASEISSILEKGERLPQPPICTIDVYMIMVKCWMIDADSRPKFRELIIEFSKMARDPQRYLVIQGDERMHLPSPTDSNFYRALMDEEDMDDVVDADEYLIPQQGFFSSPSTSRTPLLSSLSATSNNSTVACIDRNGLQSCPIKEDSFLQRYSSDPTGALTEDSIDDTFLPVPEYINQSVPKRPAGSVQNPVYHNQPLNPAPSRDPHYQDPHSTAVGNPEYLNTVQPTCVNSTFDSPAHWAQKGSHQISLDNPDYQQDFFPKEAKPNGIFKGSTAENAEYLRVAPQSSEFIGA

With `COc1cc2ncnc(Nc3cccc(Cl)c3F)c2cc1OC1CCN(C(=O)c2ccccn2)CC1` [Compound 10, N-(3-chloro-2-fluorophenyl)-7-methoxy-6-{[1-(pyridin-2-ylcarbonyl)piperidin-4-yl]oxy}quinazolin-4-amine], the half-maximal inhibitory concentration (IC50) in test [1] turned out to be 14 nM; in the test with KB cells, 16 nM.
For the compound `COc1cc2ncnc(Nc3cccc(Cl)c3F)c2cc1OC1CCN(C(=O)Nc2c(C)noc2C)CC1` [Compound 96, 4-({4-[(3-Chloro-2-fluorophenyl)amino]-7-methoxyquinazolin-6-yl}oxy)-N-(3,5-dimethylisoxazol-4-yl)piperidine-1-carboxamide], the figures for the IC50 (in test [1]; with KB cells) were < 1 nM and 17 nM, respectively.
For `COc1cc2c(Nc3cccc(Cl)c3F)ncnc2cc1OC1CCN(C(=O)Cc2cc(C)no2)CC1` [Compound 33, N-(3-chloro-2-fluorophenyl)-6-methoxy-7-({1-[(3-methylisoxazol-5-yl)acetyl]piperidin-4-yl}oxy)quinazolin-4-amine] the same measures were 15 nM and 47 nM.
For `COc1cc2ncnc(Nc3cccc(Cl)c3F)c2cc1OC1CCN(C(=O)c2ccno2)CC1` [Compound 1, N-(3-chloro-2-fluorophenyl)-6-{[1-(isoxazol-5-ylcarbonyl)piperidin-4-yl]oxy}-7-methoxyquinazolin-4-amine] the same measures were < 1 nM and 17 nM.
For `COc1cc2ncnc(Nc3cccc(Cl)c3F)c2cc1O[C@@H]1CCCN(C(=O)Cc2cccs2)C1` [Compound 60, N-(3-chloro-2-fluorophenyl)-7-methoxy-6-{[(3R)-1-(2-thienylacetyl)piperidin-3-yl]oxy}quinazolin-4-amine], in that order: < 1 nM and 30 nM.
For `COc1cc2c(Nc3cccc(Cl)c3F)ncnc2cc1OC1CCN(C(=O)c2cccnc2)CC1` [Compound 34, N-(3-chloro-2-fluorophenyl)-7-{[1-(pyridin-3-ylcarbonyl)piperidin-4-yl]oxy}-6-methoxyquinazolin-4-amine], the IC50 in test [1] worked out at 43 nM; in the test on KB cells, 87 nM.
